{"source": "patent US20080188449A1", "about": "“Treatment of Conditions Caused By Calcium Abnormalities” (priority 2004, published 2008)", "key": {"adult animal": {"test_system": "adult animal", "experiment": "Tolerability in adult animal", "format": "in vivo", "description": "Since ADPKD has no proven therapeutic cure or treatment, Applicants believe it is encouraging as a preliminary step to observe triptolide-mediated growth arrest and attenuation of cyst progression. […] In summary, Applicants have established a novel pathway for triptolide mediated calcium release in a polycystin-2 dependent pathway that can reduce cystic burden in the kidneys of PKD mice. It is hopeful therefore that if fully developed, triptolide would be an ideal candidate for drug therapy as its history as an herbal therapy has already shown it to be well tolerated in humans."}, "HeLa cells [1]": {"test_system": "HeLa cells", "experiment": "Viability of parvalbumin-GFP transfected HeLa cells", "format": "cell-based", "conditions": "100 nM", "description": "To investigate further the role of calcium in triptolide function Applicants utilized a system to buffer intracellular calcium levels. Various GFP-parvalbumin (PV) fusion proteins can be specifically localized to either the nucleus or the cytoplasm through a nuclear localization or exclusion signal (NLS or NES, respectively) (Pusl, et al., 2002, J Biol Chem 277, 27517-27527). Parvalbumin has two EF-hand calcium binding domains and can efficiently reduce the availability of free calcium in the cell (Pauls, et al., 1996, Biochim Biophys Acta 1306, 39-54). HeLa cells were transiently transfected with the GFP vector control, NES-PV-GFP, or NLS-PV-GFP in calcium containing media and efficient expression of each construct was determined by GFP localization (FIG. 4A). Normal cell growth was first assessed throughout 48 hours with each of the constructs. […] For triptolide experiments, cells were transfected and allowed to express the construct for 24 hours before the addition of 100 nM triptolide. After 24 and 48 hours of treatment, cells were assessed for viability. […]\nAll parvalbumin-GFP constructs and control vectors (Pusl, et al., 2002, J Biol Chem 277, 27517-27527) were a gift of Anton Bennett (Yale University). […] Cell viability was assessed at 24 and 48 hours post triptolide addition by morphology and trypan blue dye exclusion."}, "HeLa cells [2]": {"test_system": "HeLa cells", "experiment": "HeLa cell viability by trypan blue dye exclusion", "format": "cell-based", "procedure": "Since extracellular calcium concentration can influence triptolide binding Applicants sought to determine if the presence of calcium influences the rate of triptolide-mediated apoptosis. To first establish the growth rate of HeLa in media±calcium, cell counts were performed over a 72 hour time course. Although calcium-free media caused cells to detach more easily, the overall growth rates were similar where cell doubling occurred every 24 hours on average (FIG. 3B). For triptolide experiments, cells were initially equilibrated in medium±calcium for 16 hours before the addition of 100 nM triptolide. Cell death was assessed by trypan blue dye exclusion at 24, 48, and 72 hours post drug treatment. In the presence of calcium-containing medium, triptolide induced at least 50% cell death by 24 hours with this trend continuing through later time points (FIG. 3C).\nApplicants' results have implicated reversible binding of triptolide to a potential binding protein or complex that can be regulated by calcium. To understand if triptolide function is further separable between cell death and NFκB inhibition, Applicants examined the effect of concentration on these two endpoints. HeLa cells were cultured in the presence of 0, 10, 25, 50, or 100 nM of triptolide and separately assessed for cell death or the ability to suppress NFκB transactivation promoted by TNF-α. Following 24-48 hours of culture, viable cells were recovered and counted. Following 24 hours, triptolide concentrations from 25-100 nM caused greater than 50% of the cells to undergo cell death as assessed by detachment, clumping and the failure to exclude trypan blue dye. […] This is consistent with previous studies showing that low doses of triptolide cause cell cycle arrest rather than apoptosis (Kiviharju, et al., 2002, Clin Cancer Res 8, 2666-2674).\nBased upon Applicants' studies examining the concentration dependent effect of triptolide on the two measured biological endpoints, cell death and transcriptional repression, Applicants wanted to determine how modulating triptolide's structure may also discriminate between the two pathways. For cell viability assays, HeLa cells were incubated with 0, 0.1, 1, or 10 μM of each analog or triptolide for 24 hours and then counted using trypan blue dye exclusion. […] NFκB transcriptional inhibition was measured using the κB-luciferase assay as previously described following 5 hours of incubation with each analog (0-10 μM) and TNF-α addition.\nHeLa cells were incubated in DMEM or SMEM (Gibco) media+10% FBS and maintained at 37° C. in 5% CO2 for all experiments. HeLa cell viability was assessed by trypan blue dye exclusion, as well as by morphological examination (non-viable cells were rounded and detached from culture plate)."}}}
{"smiles": "CC(C)[C@]12O[C@H]1[C@@H]1O[C@]13[C@]1(O[C@H]1C[C@H]1C4=C(CC[C@@]13C)C(=O)OC4)[C@@H]2O", "note": "[triptolide, Triptolide]", "values": [{"measurement": "dose that did not adversely affect health", "setting": "adult animal", "value": "greater than 0.15 mg/kg/day"}, {"measurement": "cell death", "setting": "HeLa cells [1]; all transfection conditions, 48 hours", "value": "complete cell death"}, {"measurement": "cells rounded and no longer viable", "setting": "HeLa cells [1]; control GFP vector or NLS-PV-GFP, 24 hours", "value": 50, "unit": "%"}, {"measurement": "cell growth", "setting": "HeLa cells [2]; 10 nM", "value": "efficient at arresting cell growth"}, {"measurement": "cell death", "setting": "HeLa cells [2]; 0.1 μM, 24 hours, analog study", "value": 60, "unit": "%"}, {"measurement": "cell death", "setting": "HeLa cells [2]; 0.1 μM, 24 hours, analog study, listed as Triptolide", "value": "greater than 50%"}, {"measurement": "cell death", "setting": "HeLa cells [2]; 100 nM, calcium-containing medium, by 24 hours", "value": "at least 50%"}, {"measurement": "cell death at the higher concentrations", "setting": "HeLa cells [2]; 1 or 10 μM versus 0.1 μM, 24 hours", "value": "no significant increase"}, {"measurement": "cell death", "setting": "HeLa cells [2]; 25-100 nM, 24 hours", "value": "greater than 50%"}, {"measurement": "cell death", "setting": "HeLa cells [2]; 25-100 nM, 48 hours", "value": "nearly all cells treated within this concentration range of triptolide died"}, {"measurement": "minimal incubation time required for commitment to apoptosis", "setting": "HeLa cells [2]; HeLa cells", "value": "three to four"}]}
